Like-named read-outs stand apart in the source and are kept apart here.
Columns and labels:
[1] = test system: human umbilical cord blood cells; type: cell-based
Procedure: Umbilical cord blood-derived mononuclear cells were freshly isolated using Ficoll-gradient protocol and suspended in a lysis solution (BD Pharmingen) to remove red blood cells.
Differentiation was induced by treating (priming) with putrescine in the same manner as in the method of Example 1.2, except that putrescine was added to a concentration of 1 mM or 5 mM, and the gene expression levels for insulin (INS) and factors (MAFA, NEUROG3) that promote the differentiation into insulin-producing beta cells were measured by performing quantitative real time PCR in the same manner as in the method of Example 1.2.
(§1) Samples were divided into (1) putrescine alone-treated group (5 mM), (2) putrescine (5 mM) and glucosamine (5 mM)-co-treated group, (3) putrescine (5 mM), glucosamine (5 mM), and nicotinamide (10 mM)-co-treated group, and (4) control (non-treated group). Umbilical cord blood cells (prepared in the same manner as in Example 1.3) and mouse bone marrow cells (prepared in the same manner as in Example 1.1) were cultured in suspension to induce the differentiation into insulin-producing cells.
(§2) On day 6 after priming the umbilical cord blood cells or mouse bone marrow cells for differentiation, total RNA was extracted to perform quantitative real-time PCR, similarly to the method of Example 1.2, and the mRNA expression of insulin and beta cell differentiation-related genes (MAFA, PDX1, or NEUROG3) was determined, as shown in FIGS. 4 (in primed umbilical cord blood cells) and 5 (in primed mouse bone marrow cells).
Umbilical cord blood cells were isolated in the same manner as in Example 1.3, and the differentiation effect on culture medium was determined. […] On day 6 after the culture, the expression levels of genes were compared in the cells in which differentiation was induced in the DMEM or CMRL1066 culture medium, respectively, using RT-PCR and quantitative real-time PCR. The conditions for quantitative real-time PCR were the same as in Example 1.2, and RT-PCR was performed with the following steps; 1) initial denaturation of 94° C. for 5 minutes; 2) amplification of 94° C. for 30 seconds, 60° C. for 30 seconds, and 72° C. for 1 minute by repeating the cycle 30 times; 3) final extension of 72° C. for 10 minutes.
Cells were collected on day 6 after the culture to confirm the appearance of insulin-producing cells.

[2] = test system: mouse bone marrow cells; assay: Differentiation of mouse bone marrow cells into insulin-producing cells, RT-PCR / quantitative real-time PCR; type: cell-based; details: for insulin expression compared to the control: 10 mM each, 6 days, DMEM
Procedure: Mouse bone marrow cells were isolated from 8-week-old male C57BL/6 mice (Orientbio Inc.) in the same manner as in Example 1.1. Bone marrow cells in DMEM culture medium (Dulbecco's Modified Eagle's Medium) (standard medium) containing 5.5 mM glucose, 10% FBS, and 1% antibiotics were seeded at 5×10^6 cells/ml into a 12-well non-coated plate, treated with glucosamine (GlcN) and putrescine (Put) to a concentration of 10 mM each or together, and cultured for 6 days in suspension for differentiation.
To investigate whether or not insulin-producing cells appeared, the gene expression levels of insulin (INS), MAFA, PDX-1, and NEUROG3 were measured by a quantitative real-time PCR method, as in the method of Example 1.2, which are shown in FIG. 3.
as §1, §2

[3] = test system: human bone marrow cells; details: 5 mM putrescine, 6 days, DMEM; compared to control without putrescine
[4] = test system: umbilical cord blood cells; assay: Insulin secretion of differentiated umbilical cord blood cells, insulin ELISA; details: BP-1-102 added on day 4; primed 6 days, then 3 days in CMRL1066 with 11 mM glucose; supernatant ELISA
[5] = added to 5 mM putrescine, 5 mM glucosamine, 10 mM nicotinamide in CMRL1066, JSI-124 0.1 μM, CPT 1 μM, BP-1-102 10 μM, day 6

CC(C)(O)/C=C/C(=O)[C@](C)(O)C1[C@H](O)C[C@@]2(C)[C@@H]3CC=C4C(C=C(O)C(=O)C4(C)C)[C@]3(C)C(=O)C[C@]12C (stereo partly drawn) [JSI-124]
mRNA expression levels of insulin and beta cell differentiation-related genes, order among STAT3 inhibitors [1, 5]: significantly increased in the order of CPT <JSI-124<BP-1-102 | mRNA expression levels of insulin (INS) and beta cell differentiation-related genes (PDX1, NEUROG3, or NEUROD1) ([2]; 100 nM added on day 4 after the culture, compared to treatment at other time points (day 0, 2)): significantly increased | expression levels of genes promoting differentiation into insulin-producing cells ([2]; STAT3 inhibitor 100 nM added on day 0, 2 or 4 to glucosamine, putrescine and nicotinamide in CMRL 1066, collected day 6): increased

NCCCCN [putrescine, 1,4-diaminobutane]
mRNA expression of beta cell-specific genes (INS, MAFA, and NEUROG3) ([1]; 5 mM putrescine, 6 days, DMEM, compared to control cells without putrescine): significantly increased | gene expression levels for insulin and the factors that promote the beta cell differentiation ([1]; putrescine at a concentration of 5 mM or more (0.1 to 20 mM tested), 6 days): significantly increased | mRNA expression of insulin (INS), MAFA, PDX1, and NEUROG3 [3]: significantly increased | insulin expression compared to the control [2]: 4.3 fold

CN(CC(=O)N(Cc1ccc(C2CCCCC2)cc1)c1ccc(C(=O)O)c(O)c1)S(=O)(=O)c1c(F)c(F)c(F)c(F)c1F [BP-1-102]
mRNA expression levels of insulin and beta cell differentiation-related genes, order among STAT3 inhibitors [1]: significantly increased in the order of CPT <JSI-124<BP-1-102 | mRNA expression of insulin compared to treatment only with glucosamine, putrescine, and nicotinamide [1]: ≥ 3 fold | insulin secretion compared to only three differentiation-inducing factors (glucosamine, putrescine, and nicotinamide) [4]: ≥ 10 fold

C[C@H]1COC2=C1C(=O)C(=O)c1c2ccc2c1CCCC2(C)C [CPT]
mRNA expression levels of insulin and beta cell differentiation-related genes, order among STAT3 inhibitors [1, 5]: significantly increased in the order of CPT <JSI-124<BP-1-102

N[C@H]1C(O)O[C@H](CO)[C@@H](O)[C@@H]1O (stereo partly drawn) [glucosamine]
insulin expression compared to the control [2]: 2 fold

Reference: patent US20230088644A1, “COMPOSITION FOR INDUCING DIFFERENTIATION INTO INSULIN-PRODUCING CELLS, AND USE THEREOF” (SEOUL NATIONAL UNIVERSITY R&DB FOUNDATION, priority 2020, published 2023)
